Columns and labels:
Assay type in all cases: cell-based, human
[1] = tested on: MCM3AP; test: Western blot of MCM3AP expression after cytokine treatment; conditions: HEK 293 cells; IL6 20 ng/ml, 24 hours later TNFα 10 ng/ml and 80M2 1 μg/ml; following three days
Experimental: HEK 293 cells (ATCC number CRL-1573) and Hs68 cells (ATCC number CRL-1635) were cultured as monolayers in 10% foetal calf serum in Dulbecco's minimal essential medium at 37° C. in 10% or 5% CO2 respectively, according to recommendations by the American Tissue Culture Collection. Stable cell lines of HEK 293 cells expressing inducible wild-type or mutant MCM3AP were made by stable transfection of vectors previously described by Takei et al. (2,3). Expression of MCM3AP was induced in these stable cell lines by treatment with doxycycline.
Exponentially growing cells were harvested and fractionated into soluble and structure-bound fractions. Cells were harvested by scraping adherent cells, pelleted by centrifugation at 200 g for 4 minutes and washed in cold PBS. The cell pellet was resuspended in cold hypotonic buffer (10 mM HEPES-KOH pH 7.3, 5 mM KCl, 1.5 mM MgCl2, 1 mM DTT, 1% NP40 and protease inhibitors) and incubated on ice for 15 minutes. Cells were centrifuged at 10,000 rpm for 5 minutes and the supernatant stored at −80° C. as the soluble protein fraction. […]
Samples were separated by 7.5% SDS-PAGE and transferred to PVDF membrane at a constant voltage of 10V for 1 hour. […] The bound antibodies were detected with peroxidase-conjugated secondary antibody (Amersham Biosciences) and protein bands visualised by the […] method using ECL or ECLplus (Amersham Biosciences). […]

[2] = tested on: transformed WI38 VA13 cells; test: Cytokine and deacetylase inhibitor treatment, transformed cells; conditions: for efficacy in (selective) cell killing of transformed cells: alone and in combination with cytokine treatment, butyric acid 5 mM, TSA, CBHA 2.5 μg/ml, SAHA 5 μg/ml
Experimental: (§1) Human cells WI38 (ATCC number CCL-75), WI38 VA13 (ECACC number 85062512), SaOS2 (ECACC number 89050205), U20S (ATCC number HTB-96), HeLa (CCL-2), HEK 293 (ATCC number CRL-1573) and Hs68 (ATCC number CRL-1635) were obtained from ATCC, ECACC or CR-UK cell services. All cells were cultured as monolayers in 10% foetal bovine serum in Dulbecco's minimal essential medium at 37° C. in 5% CO2, except SaOS2 cells which were cultured in McCoy's 5a medium supplemented with 1.5 mM L-glutamine and 15% foetal bovine serum. VA13 cells are WI38 primary fibroblasts transformed with SV40 virus and therefore share the same genetic background. To measure cell viability and total cell number, cells in suspension and adherent cells were collated and analysed by resuspending with a known concentration of CaliBRITE unlabelled beads (Becton Dickinson) plus propidium iodide and counting the number of live and dead cells per 3000 beads using a FACSCalibur flow cytometer (Becton Dickinson). Alternatively, an automated trypan blue assay using a Vi-Cell XR Cell Viability Analyzer (Beckman Coulter) was employed. Cells were treated with Interleukin 6 (20 ng/ml) for 24 hours, followed by addition of antibody 80M2 (1 μg/ml), which modulates TNFα receptor 2, and TNFα (10 ng/ml). TNFα was added to the cell culture medium 30 minutes after addition of 80M2. […] All agents were added to the cell culture medium in liquid form. […] For cytokine treatment in combination with deacetylase inhibitors, cells were harvested and counted 48 hours after addition of deacetylase inhibitor.

[3] = tested on: HEK 293 cells; test: Apoptosis (annexin V) and attached cell number after cytokine treatment; conditions: HEK 293 attached cells; 24 hours after addition of TNFα and 80M2
Experimental: Cells were treated with Interleukin 6 (20 ng/ml) for 24 hours, followed by addition of antibody 80M2 (1 μg/ml), which modulates TNFα receptor 2, and TNFα (10 ng/ml). TNFα was added to the cell culture medium 30 minutes after addition of 80M2. All agents were added to the cell culture medium in liquid form. Cells were harvested after the indicated number of days of treatment, where ‘time zero’ corresponds to the point of addition of Interleukin 6.
Cells were assayed for apoptosis by Annexin V staining (Oncogene, Annexin V-FITC or Annexin V-Biotin apoptosis detection kit) and TUNEL assay (BD Biosciences, ApoAlert DNA fragmentation assay kit). Cells were assayed for Annexin V and TUNEL assay by flow cytometry, according to manufacturer's instructions. Attached cells were harvested and counted using a haemocytometer to give total attached cell number.
We examined the cell fate outcome of upregulating MCM3AP by cytokine treatment in HEK 293 cells. Treatment of HEK 293 cells with the same combination of cytokines that upregulates MCM3AP induces cell death by apoptosis (FIG. 4). Cells were treated with IL6 for 24 hours, followed by addition of TNFα and antibody 80M2. Attached cells were assayed for apoptosis and total cell number 24 hours and 36 hours later respectively.

[4] = tested on: normal WI38 cells; test: Cytokine and deacetylase inhibitor treatment, normal cells; conditions: for effect on / killing of normal WI38 cells: TSA, CBHA 2.5 μg/ml; for cell death in normal cells: in combination with cytokine treatment (TSA 400 nM; SAHA 5 μg/ml)
Experimental: as §1

IL6: cytokine interleukin-6
MCM3AP protein expression (western blot) [1]: does not stimulate MCM3AP significantly

CCCC(=O)O [butyric acid]
efficacy in (selective) cell killing of transformed cells [2]: least effective

TNFα
MCM3AP protein expression (western blot) [1]: does not stimulate MCM3AP significantly | apoptosis (annexin-V staining) [3]: markedly reduced

O=C(/C=C/c1cccc(C(=O)NO)c1)NO [CBHA, cinnamic acid bishydroxamic acid]
effect on / killing of normal WI38 cells [4]: did not kill primary WI38 cells above background levels

CC(/C=C/C(=O)NO)=C\[C@@H](C)C(=O)c1ccc(N(C)C)cc1 [TSA, trichostatin A]
effect of TSA at lower concentrations ([2]; 100 nM, 200 nM, 400 nM TSA): concentration dependent | efficacy in (selective) cell killing of transformed cells [2]: efficient in selectively killing transformed cells | transformed cells killed ([2]; three days of cytokine treatment in combination with deacetylase inhibitor (TSA 400 nM; CBHA 2.5 μg/ml; SAHA 5 μg/ml)): 80-90% | live cell number over time ([4]; 400 nM TSA in combination with cytokine treatment, compare with t=0 value): reduction in live cell number | effect on / killing of normal WI38 cells [4]: minimal effect | cell death in normal cells [4]: ~20%

O=C(CCCCCCC(=O)Nc1ccccc1)NO [SAHA, suberoylanilide hydroxamic acid]
cell death in normal cells [4]: ~40%

— US20070207120A1, “Selective Killing Of Cancer Cells By Induction Of Acetyltransferase Via Tnf-Alpha And Il-6” (priority 2004, published 2007)
